# Assay results as given in ChEMBL document CHEMBL5291721, “A preclinical secondary pharmacology resource illuminates target-adverse drug reaction associations of marketed drugs” (Nat Commun, 2023).
# Columns and labels:
# [1] = target: T1, Muscarinic acetylcholine receptor M2 (Homo sapiens, UniProt P08172); assay type: functional, cell-based
# T1 sequence (P08172 whole entry): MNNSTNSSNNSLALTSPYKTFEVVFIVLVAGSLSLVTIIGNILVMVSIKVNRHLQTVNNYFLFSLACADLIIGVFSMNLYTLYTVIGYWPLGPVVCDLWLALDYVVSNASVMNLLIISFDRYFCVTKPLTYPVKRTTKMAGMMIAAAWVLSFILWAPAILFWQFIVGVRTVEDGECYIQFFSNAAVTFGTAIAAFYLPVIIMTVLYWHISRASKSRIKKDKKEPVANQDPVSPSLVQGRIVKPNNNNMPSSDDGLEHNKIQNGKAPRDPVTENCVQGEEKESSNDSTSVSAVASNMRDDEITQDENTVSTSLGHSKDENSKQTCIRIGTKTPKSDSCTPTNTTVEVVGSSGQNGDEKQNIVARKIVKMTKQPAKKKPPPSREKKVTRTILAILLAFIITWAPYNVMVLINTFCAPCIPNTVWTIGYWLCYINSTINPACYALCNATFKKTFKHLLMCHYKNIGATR
# B2 bradykinin receptor = target: T2, B2 bradykinin receptor (Homo sapiens, UniProt P30411)
# T2 sequence (P30411 whole entry): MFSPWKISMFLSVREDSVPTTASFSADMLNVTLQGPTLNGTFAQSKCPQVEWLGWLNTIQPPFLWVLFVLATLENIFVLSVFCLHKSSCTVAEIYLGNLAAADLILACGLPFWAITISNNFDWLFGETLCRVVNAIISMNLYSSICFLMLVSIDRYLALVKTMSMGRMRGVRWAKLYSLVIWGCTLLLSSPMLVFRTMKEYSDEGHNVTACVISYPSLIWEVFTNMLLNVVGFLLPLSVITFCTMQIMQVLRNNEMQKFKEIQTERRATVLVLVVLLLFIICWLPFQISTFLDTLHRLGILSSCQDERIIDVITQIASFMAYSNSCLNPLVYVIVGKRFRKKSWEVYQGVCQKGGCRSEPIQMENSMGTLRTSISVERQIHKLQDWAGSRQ
# [2] = target: T3, Alpha-2A adrenergic receptor (Homo sapiens, UniProt P08913); assay type: functional, cell-based
# T3 sequence (P08913 whole entry): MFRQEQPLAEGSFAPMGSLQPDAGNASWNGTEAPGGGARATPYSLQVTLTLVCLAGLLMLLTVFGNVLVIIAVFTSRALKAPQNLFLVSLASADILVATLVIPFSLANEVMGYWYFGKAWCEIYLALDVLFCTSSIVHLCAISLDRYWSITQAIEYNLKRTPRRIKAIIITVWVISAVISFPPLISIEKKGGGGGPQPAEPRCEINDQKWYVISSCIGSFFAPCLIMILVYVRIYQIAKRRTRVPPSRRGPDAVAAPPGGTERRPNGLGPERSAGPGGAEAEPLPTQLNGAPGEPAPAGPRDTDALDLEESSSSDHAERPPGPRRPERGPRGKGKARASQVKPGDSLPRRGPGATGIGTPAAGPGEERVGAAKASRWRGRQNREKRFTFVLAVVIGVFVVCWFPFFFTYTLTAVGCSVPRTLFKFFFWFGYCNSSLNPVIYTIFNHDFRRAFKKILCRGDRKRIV
# [3] = target: Voltage-gated inwardly rectifying potassium channel KCNH2 (Homo sapiens, UniProt Q12809); assay type: functional; settings: read-out: AC50
# Vasopressin V2 receptor = Vasopressin V2 receptor (Homo sapiens, UniProt P30518)
# [4] = target: Muscarinic acetylcholine receptor M3 (Homo sapiens, UniProt P20309)
# [5] = target: T4, Cholecystokinin receptor type A (Homo sapiens, UniProt P32238)
# T4 sequence (P32238 whole entry): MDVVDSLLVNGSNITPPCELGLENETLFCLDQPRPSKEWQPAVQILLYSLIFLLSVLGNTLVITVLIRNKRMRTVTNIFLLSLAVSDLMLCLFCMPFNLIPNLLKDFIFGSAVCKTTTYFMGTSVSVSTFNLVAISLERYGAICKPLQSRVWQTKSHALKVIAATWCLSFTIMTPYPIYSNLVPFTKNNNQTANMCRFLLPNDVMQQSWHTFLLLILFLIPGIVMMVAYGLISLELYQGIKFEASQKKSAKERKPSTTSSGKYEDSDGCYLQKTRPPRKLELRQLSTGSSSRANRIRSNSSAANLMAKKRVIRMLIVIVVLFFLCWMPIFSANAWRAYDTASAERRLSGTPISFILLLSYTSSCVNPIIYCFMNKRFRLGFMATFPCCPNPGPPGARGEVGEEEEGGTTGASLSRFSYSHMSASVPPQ
# Melanocortin receptor 3 = Melanocortin receptor 3 (Homo sapiens, UniProt P41968)
# D(1A) dopamine receptor = D(1A) dopamine receptor (Homo sapiens, UniProt P21728); assay type: functional, cell-based
# [6] = target: 5-hydroxytryptamine receptor 2B (Homo sapiens, UniProt P41595); assay type: functional, cell-based
# [7] = target: T5, Alpha-2C adrenergic receptor (Homo sapiens, UniProt P18825); assay type: functional
# T5 sequence (P18825 whole entry): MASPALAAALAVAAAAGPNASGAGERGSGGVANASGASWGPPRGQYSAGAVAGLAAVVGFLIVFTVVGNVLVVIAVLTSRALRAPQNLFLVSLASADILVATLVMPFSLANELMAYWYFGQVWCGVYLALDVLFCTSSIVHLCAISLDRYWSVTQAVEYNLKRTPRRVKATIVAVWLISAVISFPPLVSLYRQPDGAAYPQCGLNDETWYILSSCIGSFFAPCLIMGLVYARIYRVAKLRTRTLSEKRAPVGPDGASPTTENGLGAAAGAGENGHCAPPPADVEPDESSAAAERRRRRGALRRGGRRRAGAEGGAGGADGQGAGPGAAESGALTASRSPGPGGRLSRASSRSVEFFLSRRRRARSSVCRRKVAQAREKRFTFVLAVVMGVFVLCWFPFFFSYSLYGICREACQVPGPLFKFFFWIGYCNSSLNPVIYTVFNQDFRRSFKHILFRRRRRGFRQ
# Histamine H2 receptor = Histamine H2 receptor (Homo sapiens, UniProt P25021); assay type: functional, cell-based
# Note: assay procedure not described here.
# Vasopressin V2 receptor, sequence (P30518 whole entry): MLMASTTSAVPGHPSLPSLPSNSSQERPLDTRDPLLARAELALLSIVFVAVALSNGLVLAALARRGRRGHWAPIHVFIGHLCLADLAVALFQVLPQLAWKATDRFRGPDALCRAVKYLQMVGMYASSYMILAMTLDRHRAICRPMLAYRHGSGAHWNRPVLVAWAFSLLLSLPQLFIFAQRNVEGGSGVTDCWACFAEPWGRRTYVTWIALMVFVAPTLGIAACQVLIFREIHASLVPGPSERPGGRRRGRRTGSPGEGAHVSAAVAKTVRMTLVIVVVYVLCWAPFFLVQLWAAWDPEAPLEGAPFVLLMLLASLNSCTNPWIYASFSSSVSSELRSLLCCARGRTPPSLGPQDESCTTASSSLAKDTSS
# 5-hydroxytryptamine receptor 2B, sequence (P41595 whole entry): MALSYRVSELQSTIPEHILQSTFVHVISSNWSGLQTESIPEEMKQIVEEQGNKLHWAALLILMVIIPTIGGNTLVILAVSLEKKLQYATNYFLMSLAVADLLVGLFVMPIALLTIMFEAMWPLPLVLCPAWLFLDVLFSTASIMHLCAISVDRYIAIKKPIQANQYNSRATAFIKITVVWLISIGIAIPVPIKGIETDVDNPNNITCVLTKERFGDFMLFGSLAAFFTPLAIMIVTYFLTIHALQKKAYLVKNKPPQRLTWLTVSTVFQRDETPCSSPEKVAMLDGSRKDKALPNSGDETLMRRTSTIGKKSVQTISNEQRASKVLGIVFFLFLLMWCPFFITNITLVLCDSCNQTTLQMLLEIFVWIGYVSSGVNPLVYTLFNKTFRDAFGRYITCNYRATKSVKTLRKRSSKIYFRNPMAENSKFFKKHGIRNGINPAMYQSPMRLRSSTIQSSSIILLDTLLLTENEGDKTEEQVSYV
# Histamine H2 receptor, sequence (P25021 whole entry): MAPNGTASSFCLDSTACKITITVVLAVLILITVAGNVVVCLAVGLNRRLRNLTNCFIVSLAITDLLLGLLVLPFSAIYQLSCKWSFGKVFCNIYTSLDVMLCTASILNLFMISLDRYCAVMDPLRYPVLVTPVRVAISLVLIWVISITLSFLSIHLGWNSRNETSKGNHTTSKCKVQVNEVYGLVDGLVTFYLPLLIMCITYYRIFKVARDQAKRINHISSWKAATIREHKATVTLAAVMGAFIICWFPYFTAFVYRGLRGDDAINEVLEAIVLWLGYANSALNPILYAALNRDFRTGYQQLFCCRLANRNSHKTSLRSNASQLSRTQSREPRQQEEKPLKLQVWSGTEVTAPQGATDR
# Voltage-gated inwardly rectifying potassium channel KCNH2, sequence (Q12809 whole entry): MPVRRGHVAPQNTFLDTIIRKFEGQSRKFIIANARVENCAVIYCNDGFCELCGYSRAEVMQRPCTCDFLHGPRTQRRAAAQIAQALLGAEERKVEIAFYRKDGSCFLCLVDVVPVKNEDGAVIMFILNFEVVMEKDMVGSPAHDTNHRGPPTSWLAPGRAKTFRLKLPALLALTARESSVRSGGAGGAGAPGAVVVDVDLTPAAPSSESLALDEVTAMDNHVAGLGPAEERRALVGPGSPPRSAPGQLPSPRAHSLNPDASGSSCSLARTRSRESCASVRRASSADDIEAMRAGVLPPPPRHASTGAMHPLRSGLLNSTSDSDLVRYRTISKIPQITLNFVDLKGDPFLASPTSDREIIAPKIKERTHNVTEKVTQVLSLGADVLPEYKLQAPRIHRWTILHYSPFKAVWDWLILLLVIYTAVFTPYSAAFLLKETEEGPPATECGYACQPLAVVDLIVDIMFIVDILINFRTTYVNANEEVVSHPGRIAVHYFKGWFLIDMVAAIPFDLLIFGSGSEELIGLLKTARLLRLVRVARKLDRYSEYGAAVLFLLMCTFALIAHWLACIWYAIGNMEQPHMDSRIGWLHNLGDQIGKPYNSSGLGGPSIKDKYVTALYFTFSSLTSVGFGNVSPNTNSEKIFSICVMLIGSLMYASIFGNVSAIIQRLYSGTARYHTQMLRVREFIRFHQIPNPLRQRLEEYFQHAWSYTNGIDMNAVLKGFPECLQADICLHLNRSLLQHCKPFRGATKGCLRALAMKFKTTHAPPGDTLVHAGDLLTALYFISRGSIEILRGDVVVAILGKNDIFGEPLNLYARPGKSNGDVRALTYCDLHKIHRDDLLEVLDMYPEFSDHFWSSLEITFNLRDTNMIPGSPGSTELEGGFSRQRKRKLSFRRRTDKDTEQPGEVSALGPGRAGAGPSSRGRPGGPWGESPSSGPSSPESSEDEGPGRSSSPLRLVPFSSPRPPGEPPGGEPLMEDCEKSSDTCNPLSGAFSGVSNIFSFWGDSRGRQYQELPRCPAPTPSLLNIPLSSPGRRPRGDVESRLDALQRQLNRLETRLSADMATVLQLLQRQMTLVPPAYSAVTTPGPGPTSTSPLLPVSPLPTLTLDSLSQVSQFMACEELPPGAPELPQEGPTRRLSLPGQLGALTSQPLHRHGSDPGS
# Melanocortin receptor 3, sequence (P41968 whole entry): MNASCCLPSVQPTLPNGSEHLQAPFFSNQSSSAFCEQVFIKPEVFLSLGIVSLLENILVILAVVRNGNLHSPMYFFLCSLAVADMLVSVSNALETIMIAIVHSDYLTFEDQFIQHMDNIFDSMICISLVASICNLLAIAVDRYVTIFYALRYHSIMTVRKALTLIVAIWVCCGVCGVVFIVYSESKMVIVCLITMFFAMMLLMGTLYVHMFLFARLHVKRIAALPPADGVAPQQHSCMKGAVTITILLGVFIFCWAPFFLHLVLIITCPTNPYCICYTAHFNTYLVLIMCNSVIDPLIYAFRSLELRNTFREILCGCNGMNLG
# Muscarinic acetylcholine receptor M3, sequence (P20309 whole entry): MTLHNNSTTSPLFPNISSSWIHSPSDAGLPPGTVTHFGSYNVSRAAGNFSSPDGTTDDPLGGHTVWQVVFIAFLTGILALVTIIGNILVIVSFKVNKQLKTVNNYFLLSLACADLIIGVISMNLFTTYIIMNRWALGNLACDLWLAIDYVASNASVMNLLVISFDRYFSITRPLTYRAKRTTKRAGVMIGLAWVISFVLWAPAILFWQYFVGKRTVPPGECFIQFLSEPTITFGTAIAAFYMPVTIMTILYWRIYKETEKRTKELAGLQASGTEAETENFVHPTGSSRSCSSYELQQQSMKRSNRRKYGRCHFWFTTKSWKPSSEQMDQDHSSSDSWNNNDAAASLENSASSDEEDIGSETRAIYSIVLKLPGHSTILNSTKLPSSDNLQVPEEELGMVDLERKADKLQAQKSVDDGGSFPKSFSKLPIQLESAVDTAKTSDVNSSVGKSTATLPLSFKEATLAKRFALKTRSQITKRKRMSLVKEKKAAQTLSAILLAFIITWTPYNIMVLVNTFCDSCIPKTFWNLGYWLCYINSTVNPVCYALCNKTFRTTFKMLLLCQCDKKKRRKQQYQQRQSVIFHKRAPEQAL
# D(1A) dopamine receptor, sequence (P21728 whole entry): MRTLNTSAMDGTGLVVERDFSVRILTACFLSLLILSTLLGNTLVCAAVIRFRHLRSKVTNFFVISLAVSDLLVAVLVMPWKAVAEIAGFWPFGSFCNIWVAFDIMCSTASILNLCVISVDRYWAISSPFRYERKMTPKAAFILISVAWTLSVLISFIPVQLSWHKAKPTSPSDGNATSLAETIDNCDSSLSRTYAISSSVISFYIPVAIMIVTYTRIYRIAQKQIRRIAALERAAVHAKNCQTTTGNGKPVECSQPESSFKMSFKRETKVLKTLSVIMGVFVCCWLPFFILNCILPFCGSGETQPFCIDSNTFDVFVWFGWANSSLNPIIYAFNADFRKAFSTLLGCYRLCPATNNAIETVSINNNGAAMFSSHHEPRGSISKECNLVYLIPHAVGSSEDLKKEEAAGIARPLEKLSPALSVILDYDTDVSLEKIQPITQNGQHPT
SMILES,AC50 [1],AC50 (B2 bradykinin receptor),AC50 [2],AC50 [3],AC50 (Vasopressin V2 receptor),AC50 [4],AC50 [5],AC50 (Melanocortin receptor 3),AC50 (D(1A) dopamine receptor),AC50 [6],AC50 [7],AC50 (Histamine H2 receptor)
CC1(C)O[C@@H]2C[C@H]3[C@@H]4CCC5=CC(=O)C=C[C@]5(C)[C@H]4[C@@H](O)C[C@]3(C)[C@]2(C(=O)CO)O1 [DESONIDE],> 10 µM,> 10 µM,> 10 µM,> 30 µM,> 10 µM,> 30 µM,> 10 µM,> 10 µM,> 10 µM,> 10 µM,> 10 µM,> 10 µM
CCCCc1ncc(/C=C(\Cc2cccs2)C(=O)O)n1Cc1ccc(C(=O)O)cc1 [EPROSARTAN],> 10 µM,> 30 µM,> 10 µM,> 30 µM,> 30 µM,> 10 µM,> 30 µM,> 10 µM,> 30 µM,> 10 µM,> 10 µM,> 10 µM
C[C@]1(O)CC[C@H]2[C@@H]3CCC4=CC(=O)CC[C@]4(C)[C@@]3(F)[C@@H](O)C[C@@]21C [FLUOXYMESTERONE],> 10 µM,> 10 µM,> 10 µM,> 30 µM,> 10 µM,> 30 µM,> 10 µM,> 10 µM,> 30 µM,> 10 µM,> 30 µM,> 30 µM
COc1ccc(CCN(C)CCCC(C#N)(c2cc(OC)c(OC)c(OC)c2)C(C)C)cc1OC (stereo not drawn) [GALLOPAMIL],> 30 µM,> 30 µM,25 µM,1.9 µM,> 30 µM,> 30 µM,> 30 µM,> 30 µM,> 30 µM,0.86 µM,7.6 µM,> 30 µM
CCCC(=O)O[C@]1(C(=O)CO)CC[C@H]2[C@@H]3CCC4=CC(=O)CC[C@]4(C)[C@H]3[C@@H](O)C[C@@]21C [HYDROCORTISONE BUTYRATE],> 10 µM,> 10 µM,> 10 µM,> 30 µM,> 10 µM,> 30 µM,> 10 µM,> 10 µM,> 10 µM,> 10 µM,> 10 µM,> 10 µM
CC(C)C(=O)c1c(C(C)C)nn2ccccc12 [IBUDILAST],> 30 µM,> 30 µM,> 30 µM,> 30 µM,> 30 µM,> 30 µM,> 30 µM,> 30 µM,> 30 µM,> 30 µM,> 30 µM,> 30 µM
CCC(C(=O)O)c1ccc(N2Cc3ccccc3C2=O)cc1 (stereo not drawn) [INDOBUFEN],> 30 µM,> 30 µM,> 30 µM,> 30 µM,> 30 µM,> 30 µM,> 30 µM,> 30 µM,> 30 µM,> 30 µM,> 30 µM,> 30 µM
CC(C(=O)O)c1ccc(N2Cc3ccccc3C2=O)cc1 (stereo not drawn) [INDOPROFEN],> 30 µM,> 30 µM,> 30 µM,> 30 µM,> 30 µM,> 30 µM,> 30 µM,> 30 µM,0.51 µM,> 30 µM,> 30 µM,> 30 µM
CO[C@@H]1[C@@H](O[C@@H]2O[C@H](C)[C@@H](O[C@H]3C[C@@](C)(O)[C@@H](OC(=O)CC(C)C)[C@H](C)O3)[C@H](N(C)C)[C@H]2O)[C@@H](CC=O)C[C@@H](C)[C@@H](O)/C=C/C=C/C[C@@H](C)OC(=O)C[C@H]1OC(C)=O [JOSAMYCIN],> 10 µM,> 10 µM,> 10 µM,> 30 µM,> 10 µM,> 30 µM,> 10 µM,> 10 µM,> 10 µM,> 10 µM,> 10 µM,> 10 µM
CC(C)OC(=O)CCC/C=C\C[C@@H]1[C@@H](CC[C@@H](O)CCc2ccccc2)[C@H](O)C[C@@H]1O [LATANOPROST],> 30 µM,> 30 µM,> 30 µM,> 30 µM,> 30 µM,> 30 µM,> 30 µM,> 30 µM,> 30 µM,> 30 µM,> 30 µM,> 30 µM
COC(=O)C1=C(C)NC(C)=C(C(=O)OC(C)(C)CN(C)CCC(c2ccccc2)c2ccccc2)C1c1cccc([N+](=O)[O-])c1 (stereo not drawn) [LERCANIDIPINE],> 30 µM,> 30 µM,> 30 µM,> 30 µM,> 30 µM,> 30 µM,> 30 µM,> 30 µM,> 30 µM,> 30 µM,> 30 µM,> 30 µM
CC(C)=CCC/C(C)=C/C=C/C(C)=C/C=C/C(C)=C/C=C/C=C(C)/C=C/C=C(C)/C=C/C=C(\C)CCC=C(C)C [LYCOPENE],> 30 µM,> 30 µM,> 30 µM,> 30 µM,> 30 µM,> 30 µM,> 30 µM,> 30 µM,> 30 µM,> 30 µM,> 30 µM,> 30 µM
C[C@H](N)[C@H](O)c1cccc(O)c1 [METARAMINOL],> 10 µM,> 10 µM,> 10 µM,> 30 µM,> 10 µM,> 30 µM,> 10 µM,> 10 µM,> 30 µM,7.4 µM,> 10 µM,> 30 µM
CCC1(CC)C(=O)NCC(C)C1=O (stereo not drawn) [METHYPRYLON],> 30 µM,> 30 µM,> 30 µM,> 30 µM,> 30 µM,> 30 µM,> 30 µM,> 30 µM,> 30 µM,> 30 µM,> 30 µM,> 30 µM
